# From ChEMBL document CHEMBL2375339, “Synthesis and evaluation of 7,8-dehydrorutaecarpine derivatives as potential multifunctional agents for the treatment of Alzheimer's disease” (Eur J Med Chem, 2013)
# Activity calls are given as the source filed them. No cut-off for these calls is given here.
# Columns and labels:
# [1] = molecular target: Acetylcholinesterase (Electrophorus electricus) (UniProt O42275); test: Inhibition of electric eel acetylcholinesterase using acetylthiocholine as substrate up to 100 uM incubated for 15 mins followed by substrate addition measured for 2 mins by Ellman's method relative to control
# [2] = molecular target: Acetylcholinesterase (Homo sapiens) (UniProt P22303); test: Ratio of compound activity to tacrine activity for inhibition of acetylcholinesterase (unknown origin)-induced amyloid beta(1 to 42) aggregation
# Cholinesterase = Cholinesterase (Equus caballus, UniProt P81908)
# Description: Inhibition of horse serum butyrylcholinesterase using butylthiocholine as substrate incubated for 15 mins followed by substrate addition measured for 2 mins by Ellman's method
# [3] = molecular target: Acetylcholinesterase (Homo sapiens) (UniProt P22303); test: Ratio of compound activity to curcumin activity for inhibition of acetylcholinesterase (unknown origin)-induced amyloid beta(1 to 42) aggregation
# Acetylcholinesterase = Acetylcholinesterase (Electrophorus electricus, UniProt O42275)
# Description: Inhibition of electric eel acetylcholinesterase using acetylthiocholine as substrate incubated for 15 mins followed by substrate addition measured for 2 mins by Ellman's method
# cells = conditions: Homo sapiens, SH-SY5Y, 48 h
# Description: Cytotoxicity against human SH-SY5Y cells assessed as cell viability after 48 hrs by MTT assay
# [4] = Metal chelating activity of the compound assessed as formation of zinc complex at 20 uM after 30 mins by UV-vis spectrophotometric analysis; format: functional
# [5] = Metal chelating activity of the compound assessed as formation of sodium complex at 20 uM after 30 mins by UV-vis spectrophotometric analysis; format: functional
# [6] = Metal chelating activity of the compound assessed as formation of magnesium complex at 20 uM after 30 mins by UV-vis spectrophotometric analysis; format: functional
# [7] = Metal chelating activity of the compound assessed as formation of calcium complex at 20 uM after 30 mins by UV-vis spectrophotometric analysis; format: functional
# [8] = Metal chelating activity of the compound assessed as formation of potassium complex at 20 uM after 30 mins by UV-vis spectrophotometric analysis; format: functional
# [9] = Metal chelating activity of the compound assessed as formation of copper complex at 20 uM by molar ratio method; format: functional
# [10] = molecular target: Acetylcholinesterase (Electrophorus electricus) (UniProt O42275); test: Ratio of tacrine IC50 to compound IC50 for electric eel acetylcholinesterase
# [11] = molecular target: Acetylcholinesterase (Electrophorus electricus) (UniProt O42275); test: Mixed-type inhibition of electric eel AChE using acetylthiocholine as substrate at 0.125 to 2 nM after 15 mins by Lineweaver-Burk plot analysis
# [12] = Metal chelating activity of the compound assessed as formation of copper complex at 20 uM after 30 mins by UV-vis spectrophotometric analysis; format: functional
# [13] = Metal chelating activity of the compound assessed as formation of iron complex at 20 uM after 30 mins by UV-vis spectrophotometric analysis; format: functional
# [14] = molecular target: Acetylcholinesterase (Electrophorus electricus) (UniProt O42275); test: Mixed-type inhibition of electric eel AChE using acetylthiocholine as substrate at 3.125 to 50 nM after 15 mins by Lineweaver-Burk plot analysis
# Acetylcholinesterase (Electrophorus electricus), sequence (O42275 24-633 limits assumed): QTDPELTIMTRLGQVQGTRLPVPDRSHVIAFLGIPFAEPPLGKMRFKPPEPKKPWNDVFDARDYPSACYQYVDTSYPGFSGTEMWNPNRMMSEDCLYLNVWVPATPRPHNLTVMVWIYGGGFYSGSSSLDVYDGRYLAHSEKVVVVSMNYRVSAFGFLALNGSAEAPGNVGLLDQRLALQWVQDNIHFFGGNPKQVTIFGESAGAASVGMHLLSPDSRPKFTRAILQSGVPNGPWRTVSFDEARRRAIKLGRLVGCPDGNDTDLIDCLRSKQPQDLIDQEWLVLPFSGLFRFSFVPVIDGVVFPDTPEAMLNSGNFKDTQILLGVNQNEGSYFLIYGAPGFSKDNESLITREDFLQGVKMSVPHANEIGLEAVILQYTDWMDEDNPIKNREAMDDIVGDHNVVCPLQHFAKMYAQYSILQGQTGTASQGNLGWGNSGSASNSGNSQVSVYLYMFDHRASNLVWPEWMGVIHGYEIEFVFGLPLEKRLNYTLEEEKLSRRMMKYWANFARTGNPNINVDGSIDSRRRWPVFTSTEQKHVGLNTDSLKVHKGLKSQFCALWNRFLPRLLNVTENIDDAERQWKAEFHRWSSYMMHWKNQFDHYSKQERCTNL
# Acetylcholinesterase, sequence (O42275 whole entry): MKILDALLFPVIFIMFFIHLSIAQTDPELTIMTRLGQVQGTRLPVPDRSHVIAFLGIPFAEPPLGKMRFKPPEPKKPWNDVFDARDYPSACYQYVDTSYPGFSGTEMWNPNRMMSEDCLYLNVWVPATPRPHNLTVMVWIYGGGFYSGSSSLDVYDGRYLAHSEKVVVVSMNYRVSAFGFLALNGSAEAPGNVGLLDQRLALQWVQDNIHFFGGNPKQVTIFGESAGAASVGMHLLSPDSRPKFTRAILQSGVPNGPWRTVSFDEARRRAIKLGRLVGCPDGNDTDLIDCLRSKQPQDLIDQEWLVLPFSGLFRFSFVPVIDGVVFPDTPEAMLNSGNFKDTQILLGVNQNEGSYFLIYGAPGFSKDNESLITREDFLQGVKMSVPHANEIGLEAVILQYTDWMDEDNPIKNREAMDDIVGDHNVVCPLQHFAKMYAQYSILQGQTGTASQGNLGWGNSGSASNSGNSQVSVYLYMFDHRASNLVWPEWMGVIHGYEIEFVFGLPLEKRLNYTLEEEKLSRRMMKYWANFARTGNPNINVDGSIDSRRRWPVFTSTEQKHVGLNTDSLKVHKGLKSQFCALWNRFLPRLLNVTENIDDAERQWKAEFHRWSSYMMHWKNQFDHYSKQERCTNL
# Cholinesterase, sequence (P81908 whole entry): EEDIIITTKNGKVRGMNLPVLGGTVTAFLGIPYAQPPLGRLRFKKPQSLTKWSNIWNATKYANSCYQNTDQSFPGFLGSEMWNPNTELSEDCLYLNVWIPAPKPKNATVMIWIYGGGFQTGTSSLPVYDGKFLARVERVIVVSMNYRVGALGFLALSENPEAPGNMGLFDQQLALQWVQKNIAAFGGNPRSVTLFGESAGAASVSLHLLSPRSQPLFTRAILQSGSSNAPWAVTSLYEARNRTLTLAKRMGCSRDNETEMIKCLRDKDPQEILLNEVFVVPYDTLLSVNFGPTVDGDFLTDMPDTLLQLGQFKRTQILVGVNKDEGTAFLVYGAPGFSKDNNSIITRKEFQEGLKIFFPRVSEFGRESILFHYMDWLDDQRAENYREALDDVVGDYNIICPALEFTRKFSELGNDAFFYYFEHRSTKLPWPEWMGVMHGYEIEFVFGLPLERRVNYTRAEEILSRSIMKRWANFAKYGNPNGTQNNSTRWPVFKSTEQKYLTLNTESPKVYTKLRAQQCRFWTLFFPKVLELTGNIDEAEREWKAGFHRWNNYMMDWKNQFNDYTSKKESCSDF
# Acetylcholinesterase (Homo sapiens), sequence (P22303 whole entry): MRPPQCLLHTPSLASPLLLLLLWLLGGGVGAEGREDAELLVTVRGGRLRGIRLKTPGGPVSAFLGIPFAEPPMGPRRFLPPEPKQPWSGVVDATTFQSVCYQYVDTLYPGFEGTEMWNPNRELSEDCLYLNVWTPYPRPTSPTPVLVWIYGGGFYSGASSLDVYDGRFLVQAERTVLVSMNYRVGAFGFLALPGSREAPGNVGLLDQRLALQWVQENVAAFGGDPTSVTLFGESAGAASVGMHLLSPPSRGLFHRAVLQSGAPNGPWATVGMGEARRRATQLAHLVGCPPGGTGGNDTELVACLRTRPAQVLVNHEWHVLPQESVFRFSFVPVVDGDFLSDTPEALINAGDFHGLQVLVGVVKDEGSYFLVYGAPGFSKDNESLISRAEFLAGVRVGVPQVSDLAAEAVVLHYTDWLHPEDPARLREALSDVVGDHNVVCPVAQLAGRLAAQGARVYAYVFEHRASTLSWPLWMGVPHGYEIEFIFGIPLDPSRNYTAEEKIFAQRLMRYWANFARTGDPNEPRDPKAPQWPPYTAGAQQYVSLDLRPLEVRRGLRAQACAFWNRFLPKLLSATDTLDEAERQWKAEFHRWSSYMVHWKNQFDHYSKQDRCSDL
compound,measurement,setting,value
O=C(CNc1ccccc1)Nc1ccc2nc3c4[nH]c5ccccc5c4ccn3c(=O)c2c1,inhibition,[1],20%
same,Ratio,[2],15.3
same,IC50,Cholinesterase,25.3 µM
same,Ratio,[3],2.2
same,IC50,Acetylcholinesterase,0.0779 µM
O=C(CCNc1ccccc1)Nc1ccc2nc3c4[nH]c5ccccc5c4ccn3c(=O)c2c1,inhibition,[1],20%
same,Ratio,[2],15.3
same,IC50,Cholinesterase,27.8 µM
same,Ratio,[3],2.2
same,IC50,Acetylcholinesterase,0.0875 µM
O=C(CCc1ccccc1)Nc1ccc2nc3c4[nH]c5ccccc5c4ccn3c(=O)c2c1,inhibition,[1],20%
same,Ratio,[2],15.3
same,IC50,Cholinesterase,26.1 µM
same,Ratio,[3],2.2
same,IC50,Acetylcholinesterase,0.108 µM
C[N+](C)(C)CCC(=O)Nc1ccc2nc3c4[nH]c5ccccc5c4ccn3c(=O)c2c1,inhibition,[1],20%
same,Ratio,[2],15.3
same,IC50,Cholinesterase,37.2 µM
same,Ratio,[3],2.2
same,IC50,Acetylcholinesterase,0.197 µM
same,IC50,cells,29.2 µM
O=C(COc1cccnc1)Nc1ccc2nc3c4[nH]c5ccccc5c4ccn3c(=O)c2c1,inhibition,[1],20%
same,Ratio,[2],15.3
same,IC50,Cholinesterase,7.3 µM
same,Ratio,[3],2.2
same,IC50,Acetylcholinesterase,0.00309 µM
O=C(Cc1ccccc1)Nc1ccc2nc3c4[nH]c5ccccc5c4ccn3c(=O)c2c1,inhibition,[1],20%
same,Ratio,[2],15.3
same,IC50,Cholinesterase,24.9 µM
same,Ratio,[3],2.2
same,IC50,Acetylcholinesterase,0.116 µM
Cn1cc[n+](CCCC(=O)Nc2ccc3nc4c5[nH]c6ccccc6c5ccn4c(=O)c3c2)c1,inhibition,[1],20%
same,Ratio,[2],15.3
same,IC50,Cholinesterase,8.2 µM
same,Ratio,[3],2.2
same,IC50,Acetylcholinesterase,0.0117 µM
O=C(CC[n+]1cccc(F)c1)Nc1ccc2nc3c4[nH]c5ccccc5c4ccn3c(=O)c2c1,inhibition,[1],20%
same,Ratio,[2],15.3
same,IC50,Cholinesterase,3.49 µM
same,Ratio,[3],2.2
same,IC50,Acetylcholinesterase,0.0021 µM
same,IC50,cells,> 100 µM
CCN(CC)CC(=O)Nc1ccc2nc3c4[nH]c5ccccc5c4ccn3c(=O)c2c1,inhibition,[1],20%
same,Ratio,[2],15.3
same,IC50,Cholinesterase,24.1 µM
same,Ratio,[3],2.2
same,IC50,Acetylcholinesterase,0.0704 µM
same,IC50,cells,2.3 µM
O=C(C[n+]1cccc(F)c1)Nc1ccc2nc3c4[nH]c5ccccc5c4ccn3c(=O)c2c1,inhibition,[1],20%
same,Ratio,[2],15.3
same,Activity,[4],Active
same,Activity,[5],inactive
same,Activity,[6],inactive
same,Activity,[7],inactive
same,IC50,Cholinesterase,1.86 µM
same,Ratio,[3],2.2
same,IC50,Acetylcholinesterase,0.0006 µM
same,Activity,[8],inactive
same,Activity,[9],Active
same,Ratio IC50,[10],160
same,inhibition,[11],Active
same,Activity,[12],Active
same,Activity,[13],Active
same,IC50,cells,> 100 µM
O=C(CCN1CCCC1)Nc1ccc2nc3c4[nH]c5ccccc5c4ccn3c(=O)c2c1,inhibition,[1],20%
same,Ratio,[2],15.3
same,inhibition,[14],Active
same,IC50,Cholinesterase,14.9 µM
same,Ratio,[3],2.2
same,IC50,Acetylcholinesterase,0.0139 µM
same,IC50,cells,21.2 µM
O=C(CCC[n+]1ccccc1)Nc1ccc2nc3c4[nH]c5ccccc5c4ccn3c(=O)c2c1,inhibition,[1],20%
same,Ratio,[2],15.3
same,IC50,Cholinesterase,4.16 µM
same,Ratio,[3],2.2
same,IC50,Acetylcholinesterase,0.0039 µM
COc1cc(/C=C/C(=O)CC(=O)/C=C/c2ccc(O)c(OC)c2)ccc1O [CURCUMIN],IC50,cells,35.6 µM
O=C(CC[n+]1ccccc1)Nc1ccc2nc3c4[nH]c5ccccc5c4ccn3c(=O)c2c1,inhibition,[1],20%
same,Ratio,[2],15.3
same,IC50,Cholinesterase,4.29 µM
same,Ratio,[3],2.2
same,IC50,Acetylcholinesterase,0.0023 µM
same,IC50,cells,> 100 µM
O=C(CN1CCCC1)Nc1ccc2nc3c4[nH]c5ccccc5c4ccn3c(=O)c2c1,inhibition,[1],20%
same,Ratio,[2],15.3
same,IC50,Cholinesterase,14.4 µM
same,Ratio,[3],2.2
same,IC50,Acetylcholinesterase,0.0593 µM
same,IC50,cells,2.9 µM
CCN(CC)CCC(=O)Nc1ccc2nc3c4[nH]c5ccccc5c4ccn3c(=O)c2c1,inhibition,[1],20%
same,Ratio,[2],15.3
same,IC50,Cholinesterase,28.3 µM
same,Ratio,[3],2.2
same,IC50,Acetylcholinesterase,0.0641 µM
same,IC50,cells,12.4 µM
O=C(CCOc1cccnc1)Nc1ccc2nc3c4[nH]c5ccccc5c4ccn3c(=O)c2c1,inhibition,[1],20%
same,Ratio,[2],15.3
same,IC50,Cholinesterase,6.43 µM
same,Ratio,[3],2.2
same,IC50,Acetylcholinesterase,0.0143 µM
O=C(C[n+]1ccccc1)Nc1ccc2nc3c4[nH]c5ccccc5c4ccn3c(=O)c2c1,inhibition,[1],20%
same,Ratio,[2],15.3
same,IC50,Cholinesterase,2.45 µM
same,Ratio,[3],2.2
same,IC50,Acetylcholinesterase,0.0008 µM
same,Ratio IC50,[10],160
same,IC50,cells,> 100 µM
O=C(CCN1CCCCC1)Nc1ccc2nc3c4[nH]c5ccccc5c4ccn3c(=O)c2c1,inhibition,[1],20%
same,Ratio,[2],15.3
same,IC50,Cholinesterase,24 µM
same,Ratio,[3],2.2
same,IC50,Acetylcholinesterase,0.051 µM
same,IC50,cells,5 µM
O=C(CN1CCOCC1)Nc1ccc2nc3c4[nH]c5ccccc5c4ccn3c(=O)c2c1,inhibition,[1],20%
same,Ratio,[2],15.3
same,IC50,Cholinesterase,28.5 µM
same,Ratio,[3],2.2
same,IC50,Acetylcholinesterase,0.0878 µM
same,IC50,cells,9.9 µM
CN1CCN(CCC(=O)Nc2ccc3nc4c5[nH]c6ccccc6c5ccn4c(=O)c3c2)CC1,inhibition,[1],20%
same,Ratio,[2],15.3
same,IC50,Cholinesterase,28.9 µM
same,Ratio,[3],2.2
same,IC50,Acetylcholinesterase,0.141 µM
same,IC50,cells,13.3 µM
Cn1cc[n+](CCC(=O)Nc2ccc3nc4c5[nH]c6ccccc6c5ccn4c(=O)c3c2)c1,inhibition,[1],20%
same,Ratio,[2],15.3
same,IC50,Cholinesterase,7.02 µM
same,Ratio,[3],2.2
same,IC50,Acetylcholinesterase,0.0093 µM
same,IC50,cells,> 100 µM
Cn1cc[n+](CC(=O)Nc2ccc3nc4c5[nH]c6ccccc6c5ccn4c(=O)c3c2)c1,inhibition,[1],20%
same,Ratio,[2],15.3
same,IC50,Cholinesterase,7.34 µM
same,Ratio,[3],2.2
same,IC50,Acetylcholinesterase,0.008 µM
same,IC50,cells,> 100 µM
C[N+]1(CCC(=O)Nc2ccc3nc4c5[nH]c6ccccc6c5ccn4c(=O)c3c2)CCCC1,inhibition,[1],20%
same,Ratio,[2],15.3
same,IC50,Cholinesterase,17.1 µM
same,Ratio,[3],2.2
same,IC50,Acetylcholinesterase,0.137 µM
same,IC50,cells,19.1 µM
CN(C)CCC(=O)Nc1ccc2nc3c4[nH]c5ccccc5c4ccn3c(=O)c2c1,inhibition,[1],20%
same,Ratio,[2],15.3
same,IC50,Cholinesterase,21.4 µM
same,Ratio,[3],2.2
same,IC50,Acetylcholinesterase,0.0561 µM
same,IC50,cells,5.5 µM
O=C(CCN1CCOCC1)Nc1ccc2nc3c4[nH]c5ccccc5c4ccn3c(=O)c2c1,inhibition,[1],20%
same,Ratio,[2],15.3
same,IC50,Cholinesterase,27.6 µM
same,Ratio,[3],2.2
same,IC50,Acetylcholinesterase,0.0786 µM
same,IC50,cells,3.1 µM
CN1CCN(CC(=O)Nc2ccc3nc4c5[nH]c6ccccc6c5ccn4c(=O)c3c2)CC1,inhibition,[1],20%
same,Ratio,[2],15.3
same,IC50,Cholinesterase,29.1 µM
same,Ratio,[3],2.2
same,IC50,Acetylcholinesterase,0.158 µM
same,IC50,cells,8.6 µM
O=C(CN1CCCCC1)Nc1ccc2nc3c4[nH]c5ccccc5c4ccn3c(=O)c2c1,inhibition,[1],20%
same,Ratio,[2],15.3
same,IC50,Cholinesterase,23.2 µM
same,Ratio,[3],2.2
same,IC50,Acetylcholinesterase,0.07 µM
same,IC50,cells,6.3 µM
O=C(CCCN1CCCC1)Nc1ccc2nc3c4[nH]c5ccccc5c4ccn3c(=O)c2c1,inhibition,[1],20%
same,Ratio,[2],15.3
same,IC50,Cholinesterase,18.5 µM
same,Ratio,[3],2.2
same,IC50,Acetylcholinesterase,0.0846 µM
CN(C)CC(=O)Nc1ccc2nc3c4[nH]c5ccccc5c4ccn3c(=O)c2c1,inhibition,[1],20%
same,Ratio,[2],15.3
same,IC50,Cholinesterase,26.5 µM
same,Ratio,[3],2.2
same,IC50,Acetylcholinesterase,0.0701 µM
same,IC50,cells,4.1 µM
O=C(CCCc1ccccc1)Nc1ccc2nc3c4[nH]c5ccccc5c4ccn3c(=O)c2c1,inhibition,[1],20%
same,Ratio,[2],15.3
same,IC50,Cholinesterase,24.6 µM
same,Ratio,[3],2.2
same,IC50,Acetylcholinesterase,0.136 µM
